Measurements taken from ChEMBL document CHEMBL5236643, “Discovery and characterization of orally bioavailable 4-chloro-6-fluoroisophthalamides as covalent PPARG inverse-agonists” (Bioorg Med Chem, 2023).
pEC50, pIC50: −log10 of the molar value. ≈ marks a conversion by molar mass, not a printed value. Values belong to the compound of their own block, whether it stands above or below them. Calls of active or inactive are those of the source. The rule behind the calls is not given here.

Assays:
[1] = biological target: T1, Peroxisome proliferator-activated receptor gamma (Homo sapiens, UniProt P37231); experiment: Inverse agonist activity at GST tagged human PPARgamma LBD (231 to 505 residues) expressed in Escherichia coli BL21(DE3) assessed as recruitment of fluorescein labeled corepressor NCOR2 Smrt-ID2 peptide to PPARgamma LBD incubated for 24 hrs by LanthaScreen TR-FRET assay
T1 sequence (P37231 whole entry): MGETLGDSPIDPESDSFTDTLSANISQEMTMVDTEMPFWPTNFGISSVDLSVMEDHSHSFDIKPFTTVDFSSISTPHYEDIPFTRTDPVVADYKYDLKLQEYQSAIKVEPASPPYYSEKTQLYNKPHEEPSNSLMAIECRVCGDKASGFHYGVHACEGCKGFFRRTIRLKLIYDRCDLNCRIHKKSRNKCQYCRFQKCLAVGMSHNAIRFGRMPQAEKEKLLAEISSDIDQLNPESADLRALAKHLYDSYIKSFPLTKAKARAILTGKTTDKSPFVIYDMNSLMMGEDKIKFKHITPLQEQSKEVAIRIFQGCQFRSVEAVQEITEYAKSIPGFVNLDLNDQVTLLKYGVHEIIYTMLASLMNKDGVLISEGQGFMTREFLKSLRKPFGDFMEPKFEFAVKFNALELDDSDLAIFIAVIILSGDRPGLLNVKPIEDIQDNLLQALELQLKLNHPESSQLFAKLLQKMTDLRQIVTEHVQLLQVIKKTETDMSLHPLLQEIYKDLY

[2] = biological target: T1, Peroxisome proliferator-activated receptor gamma; experiment: Inverse agonist activity at human PPARgamma in human RT112/84 transfected with NLuc-fused FABP4 assessed as reduction in PPARgamma transactivation incubated for 6 to 18 hrs by Nano-Glo luciferase assay; format: cell-based
[3] = Antiproliferative activity against human UM-UC-9 assessed as inhibition of cell proliferation measured after 7 days by IncuCyte live-cell imaging assay; details: UM-UC-9, 168 h
[4] = Antiproliferative activity against human UM-UC-9 assessed as inhibition of cell proliferation by measuring maximum efficacy after 7 days by IncuCyte live-cell imaging assay; format: functional; details: UM-UC-9, 168 h, time 7 day
[5] = Microsomal stability in human liver microsomes assessed as intrinsic clearance at 1 uM measured upto 60 mins in presence of NADPH by HPLC-MS/MS analysis; format: ADME, Microsome; details: read-out: CLH (converted)
[6] = Stability in rat hepatocytes assessed as intrinsic clearance at 1 uM incubated for 1 hr by HPLC-MS/MS analysis; format: ADME, cell-based, Hepatocyte; details: read-out: CLH (converted)
[7] = Stability of compound in GSH at pH 7.4 assessed as parent compound remaining at 10 mM and measured after 1 hrs by HPLC-UV analysis; format: physicochemical; details: GSH solution, read-out: Stability
[8] = Stability of compound in GSH at pH 7.4 assessed as parent compound remaining at 10 mM and measured after 2 hrs by HPLC-UV analysis; format: physicochemical; details: GSH solution, read-out: Stability
[9] = Stability of compound in GSH at pH 7.4 assessed as parent compound remaining at 10 mM and measured after 4 hrs by HPLC-UV analysis; format: physicochemical; details: GSH solution, read-out: Stability
[10] = Stability of compound in GSH at pH 7.4 assessed as parent compound remaining at 10 mM and measured after 24 hrs by HPLC-UV analysis; format: physicochemical; details: GSH solution, read-out: Stability
[11] = Stability of compound in cysteine at pH 7.4 assessed as parent compound remaining at 10 mM and measured after 1 hrs by HPLC-UV analysis; format: physicochemical; details: cysteine solution, read-out: Stability
[12] = Stability of compound in cysteine at pH 7.4 assessed as parent compound remaining at 10 mM and measured after 2 hrs by HPLC-UV analysis; format: physicochemical; details: cysteine solution, read-out: Stability
[13] = Stability of compound in cysteine at pH 7.4 assessed as parent compound remaining at 10 mM and measured after 4 hrs by HPLC-UV analysis; format: physicochemical; details: cysteine solution, read-out: Stability
[14] = Stability of compound in cysteine at pH 7.4 assessed as parent compound remaining at 10 mM and measured after 24 hrs by HPLC-UV analysis; format: physicochemical; details: cysteine solution, read-out: Stability
[15] = Apparent permeability across basolateral to apical side in human Caco-2 cells at 2 uM incubated for 2 hrs by LC-MS/MS analysis; format: ADME, cell-based
[16] = Thermodynamic solubility of compound at pH 6.5 PBS buffer; format: physicochemical; details: read-out: Therm_solubility
[17] = biological target: T2, Nuclear receptor subfamily 1 group I member 2 (Homo sapiens, UniProt O75469); experiment: Transactivation of human PXR in human HepG2 cells co-expressing luciferase gene under control of CYP3A4 promoter assessed as increase in luciferase activity incubated for 24 hrs by luminescence based analysis; format: ADME, cell-based
T2 sequence (O75469 whole entry): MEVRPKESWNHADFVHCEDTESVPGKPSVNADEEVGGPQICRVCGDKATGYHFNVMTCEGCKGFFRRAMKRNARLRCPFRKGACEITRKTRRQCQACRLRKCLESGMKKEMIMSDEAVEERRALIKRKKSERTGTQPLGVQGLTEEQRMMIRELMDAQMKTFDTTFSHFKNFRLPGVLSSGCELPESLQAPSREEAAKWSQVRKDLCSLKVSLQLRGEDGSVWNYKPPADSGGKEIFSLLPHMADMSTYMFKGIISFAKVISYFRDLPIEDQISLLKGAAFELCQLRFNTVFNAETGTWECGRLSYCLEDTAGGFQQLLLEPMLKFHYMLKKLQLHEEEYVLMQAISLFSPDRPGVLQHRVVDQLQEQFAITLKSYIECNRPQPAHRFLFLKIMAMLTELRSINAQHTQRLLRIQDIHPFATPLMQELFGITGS

[18] = AUClast in Wistar rat at 0.3 mg/kg,iv measured upto 24 hrs by HPLC-MS/MS analysis; format: ADME, organism-based; set-up: dose 0.3 mg/kg, time < 24 hrs, route iv; details: in vivo
[19] = Clearance in Wistar rat at 0.3 mg/kg,iv measured upto 24 hrs by HPLC-MS/MS analysis; format: ADME, organism-based; details: in vivo
[20] = Volume of distribution at steady state in Wistar rat at 0.3 mg/kg,iv measured upto 24 hrs by HPLC-MS/MS analysis; format: ADME, organism-based; details: in vivo, read-out: Vdss
[21] = Half life in Wistar rat at 0.3 mg/kg,iv measured upto 24 hrs by HPLC-MS/MS analysis; format: ADME, organism-based; details: in vivo
[22] = AUClast in NMRI-nu/nu mouse at 100 mg/kg,po measured upto 24 hrs by HPLC-MS/MS analysis; format: ADME, organism-based; set-up: time < 24 hrs, dose 100 mg/kg, route po; details: in vivo
[23] = Cmax in NMRI-nu/nu mouse at 100 mg/kg,po measured upto 24 hrs by HPLC-MS/MS analysis; format: ADME, organism-based; set-up: time < 24 hrs, dose 100 mg/kg, route po; details: in vivo
[24] = Tmax in NMRI-nu/nu mouse at 100 mg/kg,po measured upto 24 hrs by HPLC-MS/MS analysis; format: ADME, organism-based; details: in vivo
[25] = biological target: T3, Peroxisome proliferator-activated receptor gamma (Mus musculus) (UniProt P37238); experiment: Inverse agonist activity at PPARgamma in NMRI-nu/nu mouse assessed as reduction in Fabp4 mRNA expression in adipose tissue at 100 mg/kg for 3 days and measured 6 hrs last dose by qPCR analysis; format: organism-based; details: time 3.0 day
T3 sequence (whole entry): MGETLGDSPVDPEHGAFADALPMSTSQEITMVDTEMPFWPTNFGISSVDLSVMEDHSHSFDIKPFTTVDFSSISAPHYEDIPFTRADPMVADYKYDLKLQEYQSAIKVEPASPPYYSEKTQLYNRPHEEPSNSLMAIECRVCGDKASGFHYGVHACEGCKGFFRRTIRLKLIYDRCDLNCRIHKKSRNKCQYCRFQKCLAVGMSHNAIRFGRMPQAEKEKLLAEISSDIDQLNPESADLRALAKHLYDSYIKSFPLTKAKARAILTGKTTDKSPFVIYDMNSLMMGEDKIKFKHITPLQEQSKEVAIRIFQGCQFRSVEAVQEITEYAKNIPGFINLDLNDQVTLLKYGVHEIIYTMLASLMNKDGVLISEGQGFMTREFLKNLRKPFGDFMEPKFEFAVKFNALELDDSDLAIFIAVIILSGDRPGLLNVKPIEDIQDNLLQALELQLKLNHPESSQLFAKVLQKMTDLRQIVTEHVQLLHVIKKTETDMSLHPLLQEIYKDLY

[26] = biological target: T4, Peroxisome proliferator-activated receptor alpha (Homo sapiens, UniProt Q07869); experiment: Agonist activity at human PPARalpha expressed in CHO cells co-expressing GAL4-NHR-LBD assessed as transcriptional activation preincubated for 6 hrs followed by luciferin addition by luminescence method; format: cell-based
T4 sequence (Q07869 whole entry): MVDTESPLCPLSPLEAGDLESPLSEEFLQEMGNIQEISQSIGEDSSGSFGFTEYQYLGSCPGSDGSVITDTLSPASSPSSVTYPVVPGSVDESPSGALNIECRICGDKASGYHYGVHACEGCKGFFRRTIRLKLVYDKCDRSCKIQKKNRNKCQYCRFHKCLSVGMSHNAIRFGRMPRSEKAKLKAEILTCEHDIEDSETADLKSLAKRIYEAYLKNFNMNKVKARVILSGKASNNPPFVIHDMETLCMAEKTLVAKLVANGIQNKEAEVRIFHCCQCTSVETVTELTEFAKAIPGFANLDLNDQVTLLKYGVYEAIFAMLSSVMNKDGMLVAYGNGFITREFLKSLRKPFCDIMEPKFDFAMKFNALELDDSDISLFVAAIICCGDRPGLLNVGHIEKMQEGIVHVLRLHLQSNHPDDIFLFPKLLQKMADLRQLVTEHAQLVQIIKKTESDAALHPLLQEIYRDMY

[27] = biological target: T5, Peroxisome proliferator-activated receptor delta (Homo sapiens, UniProt Q03181); experiment: Inverse agonist activity at human PPARdelta expressed in CHO cells co-expressing GAL4-NHR-LBD assessed as transcriptional repression preincubated for 6 hrs followed by luciferin addition by luminescence method; format: cell-based
T5 sequence (Q03181 whole entry): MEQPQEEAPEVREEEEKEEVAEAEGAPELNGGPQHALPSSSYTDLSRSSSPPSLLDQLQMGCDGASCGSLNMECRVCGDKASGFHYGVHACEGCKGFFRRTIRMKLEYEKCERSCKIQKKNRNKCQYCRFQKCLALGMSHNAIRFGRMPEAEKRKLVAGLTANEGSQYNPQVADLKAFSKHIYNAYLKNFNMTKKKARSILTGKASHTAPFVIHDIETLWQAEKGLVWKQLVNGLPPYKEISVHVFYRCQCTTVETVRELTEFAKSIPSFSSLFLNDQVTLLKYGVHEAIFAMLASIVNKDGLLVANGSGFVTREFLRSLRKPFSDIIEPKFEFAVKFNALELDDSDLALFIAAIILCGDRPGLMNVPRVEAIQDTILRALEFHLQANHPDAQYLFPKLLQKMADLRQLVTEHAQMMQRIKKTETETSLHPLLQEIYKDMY

SMILES: O=C(NCc1ccc(Cl)cc1)c1ccc(Cl)c(C(=O)Nc2ccccc2)c1
- pEC50 [1]: 5.14
- pIC50 [2]: < 5.30

SMILES: Cc1cc(C(=O)NCc2ccccc2)cc(C(=O)Nc2ccccc2)c1Cl
- pEC50 [1]: < 4.48
- pIC50 [2]: < 5.30

SMILES: O=C(NCc1ccccc1)c1cc(Cl)cc(C(=O)Nc2ccccc2)c1
- pEC50 [1]: < 5.30
- pIC50 [2]: < 5.30

SMILES: Cc1cc(N2CCOCC2)cnc1NC(=O)c1cc(C(=O)NCc2ccc(F)c(F)c2)c(F)cc1Cl
- pIC50 [3]: 7.01
- Emax [4]: 99%
- CLint scaled at 1 µM [5]: 14.7 mL/min/kg
- CLint scaled at 1 µM [6]: 42.5 mL/min/kg
- remaining at 1 h, 10000 µM [7]: 100%
- remaining at 2 h, 10000 µM [8]: 100%
- remaining at 4 h, 10000 µM [9]: 100%
- remaining at 24 h, 10000 µM [10]: 100%
- remaining at 1 h, 10000 µM [11]: 100%
- remaining at 2 h, 10000 µM [12]: 100%
- remaining at 4 h, 10000 µM [13]: 100%
- remaining at 24 h, 10000 µM [14]: 100%
- Papp B→A at 2 h, 2 µM [15]: 10.9 ×10⁻⁶ cm/s
- solubility thermodynamic [16]: 1.6 µg/mL (≈ 3.08 µM)
- pIC50 [17]: < 4.30
- AUClast [18]: 0.35 kg·h/L
- clearance [19]: 46.7 mL/min/kg
- Vd [20]: 0.84 L/kg
- half-life [21]: 0.21 h
- AUC(0-t) at 24 h [22]: 520 ng·h/mL
- Cmax [23]: 73 nM
- Tmax [24]: 7 h
- Activity [25]: inactive

SMILES: Cc1c(C)n(Cc2ccc(Cl)c(O[C@@H](C)C(=O)O)c2)c2ccc(C(=O)N[C@@H](C)c3ccc(C(C)(C)C)cc3)cc12
- pIC50 [26]: 6.03
- pIC50 [27]: 5.05
- Activity [25]: inactive

Further compounds by rising pEC50 [1], results first:

- pEC50 [1]: 5.52
- pIC50 [2]: < 5.30
SMILES: Cc1cccc(CNC(=O)c2ccc(Cl)c(C(=O)Nc3ccccc3)c2)c1

- pEC50 [1]: 5.66
- pIC50 [2]: < 5.30
SMILES: O=C(NCc1ccccc1)c1cc(C(=O)Nc2ccccc2)c(Cl)c(C(F)(F)F)c1

- pEC50 [1]: 7.16
- pIC50 [2]: 7.42
SMILES: Cc1ccccc1NC(=O)c1cc(C(=O)NCc2ccccc2)c(F)cc1Cl
- pIC50 [3]: 6.78
- Emax [4]: 26%

- pEC50 [1]: 7.31
SMILES: Cc1cc(-c2nnco2)ccc1NC(=O)c1cc(C(=O)NCc2ccc(F)c(F)c2)c(F)cc1Cl
- Emax [4]: 87%
